Test results published in patent US20100144779A1, “Marine Alkalod Makaluvamines and Derivatives Thereof” (THE UAB RESEARCH FOUNDATION, priority 2007, published 2010).
Like-named read-outs stand apart in the source and are kept apart here.

Columns and labels:
Format in all cases: cell-based, human
MCF-7 = assay: XTT cytotoxicity assay
Description: (§1) In initial experiments, compounds 4a-g and 7c-g were evaluated for their cytotoxicity against human breast cancer cell lines MCF-7 and MDA-MB-468 and human colon cancer cell line HCT-116. The makaluvamine compounds provided in Table 2 were also evaluated for their cytotoxicity against human breast cancer cell lines MCF-7. Compound nos. 8 and 27-33 were not evaluated in this experiment. Cells were obtained from ATCC (Manassas, Va.). For each derivative the IC50 value was determined using data generated from 2-4 independent tetrazolium-based (XTT) cytotoxicity assays (R & D Systems Inc., Minneapolis, Minn.) according to the manufacturer's instructions. […] MCF-7, MDA-MD-468 and HCT-116 cells were grown at 37 degrees C. in a humidified atmosphere with complete growth media supplemented with fetal bovine serum. Growth media was changed 2-3 times per week as required.

p21 = assay: Protein expression, Western blot in MCF-7 cells; conditions: 1 μM, 6 h (FIG. 4A)
Description: (§2) In FIG. 4A, MCF-7 cells were exposed to 1 μM concentration of the indicated compounds for 6 hours. Western blots were probed with antibodies specific for the proteins indicated. Numbers below each lane show densitometry readings for each lane as compared to control. […] Western blots were probed with antibodies specific for the proteins indicated.
(§3) To determine the disclosed compounds effect on protein expression in human breast cancer cells, cultured MCF-7 cells were exposed to various concentrations of the test compounds for 6 h (FIG. 4A) or 24 h (FIG. 4B). Cell lysates were fractionated with identical amounts of protein by SDS-PAGE and transferred to Bio-Rad trans-Blot nitrocellulose membranes (Bio-Rad Laboratories, Hercules, Calif.). The nitrocellulose membrane was incubated in blocking buffer (Tris-buffered saline containing 0.1% Tween 20 and 5% nonfat milk) for 1 h at room temperature, then with the appropriate primary antibody overnight at 4° C. or 2 h at room temperature with gentle shaking. Finally, the membrane was washed three times with the washing buffer (Tris-buffered saline containing 0.1% Tween 20) for 15 min, incubated with goat anti mouse/rabbit IgG-horseradish peroxidase-conjugated antibody (Bio-Rad) for 1 h at room temperature, and washed again (in triplicate). The protein of interest was detected by enhanced chemiluminescence reagents from PerkinElmer LAS, Inc (Boston, Mass.).

p53 = assay: Protein expression, Western blot in MCF-7 cells; conditions: 1 μM, 6 h (FIG. 4A)
Description: as §2, §3

MCF7 cells = assay: MTT growth inhibition assay; conditions: for IC50: Homo sapiens, read-out: Growth inhibitory activity (IC50) in MCF7 cells
Description: The cell lines were obtained from the American Type Culture Collection (Rockville, Md.) and were grown as follows: MCF-7 (p53 wt) breast cancer cells were grown in DMEM media containing 1 mM non-essential amino acids, Earle's BSS, 1 mM Na pyruvate, and 10 mg/L bovine insulin.
All media contained 10% FBS and 1% penicillin/streptomycin unless otherwise specified. The effects of disclosed compounds on human cancer cell growth, expressed as the percentage of cell survival, were determined by the MTT [3-(4,5-Dimethyl-2-thiazolyl)-2,5-diphenyl-2H-tetrazolium bromide] assay. Cells were grown in 96-well plates and exposed to the test compounds (0, 0.01, 0.1, 1, 10, 100 μM) for 72 hr followed by addition of 10 μL MTT solution (5 mg/mL; Sigma; St. Louis, Mo.) to each well. The plates were incubated for 2-4 hr at 37° C. The supernatant was then removed and formazan crystals were dissolved with 100 μL of DMSO. The absorbance at 570 nm was recorded with an OPTImax microplate reader (Molecular Devices; Sunnyvale, Calif.). The cell survival percentages were calculated by dividing the mean OD of compound containing wells by that of DMSO-control wells. Three separate experiments were accomplished to determine the IC50.

HCT-116 = assay: XTT cytotoxicity assay; conditions: read-out: Inhibition of Cancer Cell Proliferation (IC50) HCT-116
Description: as §1

MDA-MB-468 = assay: XTT cytotoxicity assay; conditions: read-out: Inhibition of Cancer Cell Proliferation (IC50) MDA-MB-468
Description: as §1

MDM2 = assay: Protein expression, Western blot in MCF-7 cells; conditions: 1 μM, 6 h (FIG. 4A)
Description: as §2, §3

[1] = Homo sapiens, MCF7, Table 2, XTT, read-out: IC50 (μM) MCF-7
[2] = Table 2, XTT, read-out: IC50 (μM) MCF-7
[3] = average ± standard deviation of 2-4 independent assays
[4] = XTT, average ± standard deviation of 2-4 independent assays, read-out: Inhibition of Cancer Cell Proliferation (IC50) MCF-7

SMILES | IC50 (MCF-7; [1]) | IC50 (MCF-7; [2]) | expression of p21 (p21) | expression of p53 (p53) | IC50 (MCF7 cells; MCF7, Table 5, MTT, 72 hr) | Growth inhibitory activity (IC50) in MCF7 cells (MCF7 cells; Table 5, MTT, 72 hr) | other results
Cc1ccc(S(=O)(=O)n2cc3c4c2C(=O)C(NCc2ccc5c(c2)OCO5)=CC4=NCC3)cc1.O=C(O)C(F)(F)F [Compound 1] | < 1 µM | 0.78 µM | increased the expression |  |  |  | 
O=C(O)C(F)(F)F.O=C1C(NCc2ccc3c(c2)OCO3)=CC2=NCCc3c[nH]c1c32 [Compound 2] | 5 to 15 µM | 5.22 µM | decreased the expression | increased the expression | 0.809 µM | nM range | 
COC1=CC(CNC2=CC3=NCCc4cn(S(=O)(=O)c5ccc(C)cc5)c(c43)C2=O)=CC(OC)C1OC (centres unmarked) [Compound 3] | < 1 µM | 0.96 µM |  |  |  |  | 
COC1=CC(CNC2=CC3=NCCc4c[nH]c(c43)C2=O)=CC(OC)C1OC.O=C(O)C(F)(F)F (centres unmarked) [Compound 4] | 30.5 µM |  |  | increased the expression | 0.515 µM |  | 
Cc1ccc(S(=O)(=O)n2cc3c4c2C(=O)C(NCCc2ccc5c(c2)OCO5)=CC4=NCC3)cc1.O=C(O)C(F)(F)F [Compound 5] |  |  | increased the expression | increased the expression | 1.62 µM | μM range | 
Cc1ccc(S(=O)(=O)n2cc3c4c2C(=O)C(NCCc2ccc([N+](=O)[O-])cc2)=CC4=NCC3)cc1 [Compound 7] | < 1 µM | > 1 µM |  |  |  |  | 
Cc1ccc(S(=O)(=O)n2cc3c4c2C(=O)C(NCCc2ccccc2)=CC4=NCC3)cc1 [Compound 7d] |  |  |  |  |  |  | IC50 (HCT-116; [3]): 0.5 µM; IC50 (MDA-MB-468; [3]): 0.8 ± 0.1 µM; IC50 (MCF-7; [4]): 1.5 ± 0.1 µM
Cc1ccc(S(=O)(=O)n2cc3c4c2C(=O)C(NCCc2cc(Br)c(O)c(Br)c2)=CC4=NCC3)cc1 [Compound 7f] |  |  |  |  |  |  | IC50 (HCT-116; [3]): 1 ± 0.2 µM; IC50 (MDA-MB-468; [3]): 1.5 ± 0.9 µM; IC50 (MCF-7; [4]): 2.3 ± 1.1 µM
Cc1ccc(S(=O)(=O)n2cc3c4c2C(=O)C(NCCc2c[nH]c5ccccc25)=CC4=NCC3)cc1 [Compound 7g] |  |  |  |  |  |  | IC50 (HCT-116; [3]): 0.8 ± 0.3 µM; IC50 (MDA-MB-468; [3]): 1.4 ± 0.9 µM; IC50 (MCF-7; [4]): 1.2 ± 0.03 µM
O=C(O)C(F)(F)F.O=C1C(NCCc2ccc([N+](=O)[O-])cc2)=CC2=NCCc3c[nH]c1c32 [Compound 8] |  |  | decreased the expression | decreased the expression | 0.427 µM | nM range | expression of MDM2 (MDM2): inhibited the expression
Cc1ccc(CNC2=CC3=NCCc4cn(S(=O)(=O)c5ccc(C)cc5)c(c43)C2=O)cc1 [Compound 9] | 1 to 5 µM | 1.48 µM |  |  |  |  | 
Cc1ccc(CNC2=CC3=NCCc4c[nH]c(c43)C2=O)cc1 [Compound 10] | 1 to 5 µM | 1.69 µM |  |  |  |  | 
Cc1ccc(CCNC2=CC3=NCCc4cn(S(=O)(=O)c5ccc(C)cc5)c(c43)C2=O)cc1 [Compound 11] | 1 to 5 µM | 1.47 µM |  |  |  |  | 
Cc1ccc(CCNC2=CC3=NCCc4c[nH]c(c43)C2=O)cc1.O=C(O)C(F)(F)F [Compound 12] |  |  | decreased the expression | increased the expression | 0.833 µM | nM range | expression of MDM2 (MDM2): inhibited the expression
COc1ccc(CNC2=CC3=NCCc4cn(S(=O)(=O)c5ccc(C)cc5)c(c43)C2=O)cc1 [Compound 13] | 1 to 5 µM | 1.02 µM |  |  |  |  | 
COc1ccc(CCNC2=CC3=NCCc4cn(S(=O)(=O)c5ccc(C)cc5)c(c43)C2=O)cc1.O=C(O)C(F)(F)F [Compound 15] | 1 to 5 µM | 1.33 µM | decreased the expression | decreased the expression | 1.05 µM | μM range | expression of MDM2 (MDM2): inhibited the expression
COc1ccc(CCNC2=CC3=NCCc4c[nH]c(c43)C2=O)cc1.O=C(O)C(F)(F)F [Compound 16] |  |  | decreased the expression | decreased the expression | 0.2 µM | nM range | expression of MDM2 (MDM2): inhibited the expression
COc1ccc(CNC2=CC3=NCCc4cn(S(=O)(=O)c5ccc(C)cc5)c(c43)C2=O)cc1OC.O=C(O)C(F)(F)F [Compound 17] | < 1 µM | 0.65 µM | increased the expression | increased the expression | 1.01 µM | μM range | 
COc1ccc(CNC2=CC3=NCCc4c[nH]c(c43)C2=O)cc1OC [Compound 18] | 5 to 15 µM | 5.98 µM |  |  |  |  | 
COc1ccc(CCNC2=CC3=NCCc4cn(S(=O)(=O)c5ccc(C)cc5)c(c43)C2=O)cc1OC [Compound 19] | < 1 µM | > 1 µM |  |  |  |  | 
Cc1ccc(S(=O)(=O)n2cc3c4c2C(=O)C(NCc2ccc(Cl)cc2)=CC4=NCC3)cc1.O=C(O)C(F)(F)F [Compound 21] | < 1 µM | 0.83 µM | decreased the expression | decreased the expression | 0.774 µM | nM range | expression of MDM2 (MDM2): inhibited the expression
O=C1C(NCc2ccc(Cl)cc2)=CC2=NCCc3c[nH]c1c32 [Compound 22] | 1 to 5 µM | 1.33 µM |  |  |  |  | 
Cc1ccc(S(=O)(=O)n2cc3c4c2C(=O)C(NCCc2ccc(Cl)cc2)=CC4=NCC3)cc1 [Compound 23] | 1 to 5 µM | 1.55 µM |  |  |  |  | 
O=C(O)C(F)(F)F.O=C1C(NCCc2ccc(Cl)cc2)=CC2=NCCc3c[nH]c1c32 [Compound 24] |  |  | decreased the expression | increased the expression | 0.584 µM | nM range | expression of MDM2 (MDM2): inhibited the expression
O=C(O)C(F)(F)F.O=C1C(NCCc2ccc(Cl)c(Cl)c2)=CC2=NCCc3c[nH]c1c32 [Compound 26] |  |  | increased the expression | increased the expression |  | nM range | IC50 (MCF7 cells; MCF7, 72 h): 0.495 µM
Cc1ccc(S(=O)(=O)n2cc3c4c2C(=O)C(NCCc2ccc(F)cc2)=CC4=NCC3)cc1.O=C(O)C(F)(F)F [Compound 29] |  |  | increased the expression | increased the expression | 1.92 µM | μM range | 
O=C(O)C(F)(F)F.O=C1C(NCCc2ccc(F)cc2)=CC2=NCCc3c[nH]c1c32 [Compound 30] |  |  | increased the expression | increased the expression | 0.787 µM | nM range | 
COc1cc([C@@H]2c3cc4c(cc3[C@@H](O[C@@H]3O[C@@H]5CO[C@@H](C)O[C@H]5[C@H](O)[C@H]3O)[C@H]3COC(=O)[C@H]23)OCO4)cc(OC)c1O [Etoposide, reference compound] | 30.5 µM |  |  |  |  |  | IC50 (HCT-116; Homo sapiens, HCT-116, average ± standard deviation of 2-4 independent assays): 1.7 µM; IC50 (MDA-MB-468; Homo sapiens, MDA-MB-468, average ± standard deviation of 2-4 independent assays): 13.6 µM; IC50 (MCF-7; Homo sapiens, MCF7, XTT, average ± standard deviation of 2-4 independent assays, read-out: Inhibition of Cancer Cell Proliferation (IC50) MCF-7): 35.6 µM
